Assay results reported in PubChem BioAssay AID463204 (Broad Institute, 2010).
Activity calls are given as the source filed them.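 How the source made its calls: active means AC50 no more than ten times the top concentration tested, that is within one log above it; inconclusive means flat curve fit with activity between 30% and 70%, or invalid poor fit; inactive means AC50 beyond ten times the top tested dose.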

Tested on: S. cerevisiae Mot1-301 ts growth rescue, BacTiter-Glo ATP luminescence
Experiment: restored Mot1-301 yeast growth at 38.5C – whole organism, S. cerevisiae, Mot1-301 ts mutant, luminescence, dose retest, SUMOylation pathway inhibitor project, confirmation (AID 463204);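 further: growth at restrictive 38.5 degrees C of Mot1-301 OY566 strain; actives raise luminescence by restoring growth of the ts mutant at high temperature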

Structure (SMILES)	AC50
COc1ccccc1N1CCN(C(=O)C2CCN(S(=O)(=O)c3ccc(C)cc3)CC2)CC1	> 42 µM (inactive)
C=CCNC(=O)c1cc(-c2cccnc2)nc2ccccc12	> 42 µM (inactive)
COc1ccccc1NC(=O)CSc1nc(O)c(Cc2ccccc2)c(=O)[nH]1	> 42 µM (inactive)
Cc1ccc(C(=O)c2cc([N+](=O)[O-])ccc2N2CCCCC2)cc1C	> 42 µM (inactive)
O=C1NC(Cc2c[nH]c3ccccc23)C(=O)N1Cc1ccc(CN2C(=O)NC(Cc3c[nH]c4ccccc34)C2=O)cc1 (stereo not given)	> 42 µM (inactive)
O=C(c1ccc([N+](=O)[O-])o1)N1CCN(c2nc3c(Cl)cccc3s2)CC1	6.55 µM
COc1ccc(/C=N/NC(=O)CCC(=O)Nc2ccccc2)cc1OC	> 42 µM (inactive)
CC(C)Cc1nc(N2CCOCC2)c(C#N)c2c1CCC2	> 42 µM (inactive)
C[C@@]12C(=O)Nc3cc(F)ccc3C(=O)N1[C@H]1c3ccccc3OC[C@@H]1[C@@H]2c1ccccc1	5.7 µM
COc1ccc(C2C3=C(CC(C)(C)CC3=O)Nc3n[nH]c(C)c32)cc1 (stereo not given)	> 42 µM (inactive)
Cc1cc2c3c(c1)C1(SCC(=O)N1c1ccc(F)cc1)C(=O)N3C(C)(C)CC2C (stereo not given)	6.97 µM
CC1=C(C(=O)Nc2ccccc2)C(c2ccccc2[N+](=O)[O-])NC(=O)N1 (stereo not given)	> 42 µM (inactive)
Cc1ccc(C)c(NC(=S)NC(=O)c2cncc(Br)c2)c1	> 42 µM (inactive)
OCCN1CN=C(Nc2nc3ccccc3o2)NC1	> 42 µM (inactive)
CCOC(=O)Cn1c(C)c(Br)c(=O)c2cccc(C)c21	> 42 µM (inactive)
C[C@@]12C(=O)Nc3ccc(F)cc3C(=O)N1[C@H]1c3cc(Cl)ccc3OC[C@@H]1[C@@H]2c1ccccc1	1.97 µM
Cc1nc(CSc2nnc3scc(-c4ccccc4)n23)cs1	> 42 µM (inactive)
O=C(CCn1cnnn1)Nc1ccc(Cl)cc1Cl	> 42 µM (inactive)
NS(=O)(=O)c1cccc(NC(=O)c2cccnc2Oc2ccccc2)c1	> 42 µM (inactive)
Cn1nc(C(C)(C)C)c([N+](=O)[O-])c1C(=O)Nc1ccccc1	> 42 µM (inactive)
Cc1ccc(C(=O)O)cc1N=Cc1cc(Br)cc(Br)c1O	2.45 µM
COC(=O)Nc1ccc(S(=O)(=O)N2CCCC(C(=O)NC3CCS(=O)(=O)C3)C2)cc1 (stereo not given)	> 42 µM (inactive)
CCCC(O)(CCC)C(=O)NNc1ccc(C)cc1	> 42 µM (inactive)
COc1cc(/C=N/n2c(C3CCCCC3)n[nH]c2=S)cc(OC)c1O	> 42 µM (inactive)

Structure (SMILES)	AC50
N#CCCN(Cc1cccnc1)C(=O)Nc1cccc(Cl)c1	> 42 µM (inactive)
O=C(CCC(=O)OC(C(=O)c1ccccc1)c1ccccc1)Nc1ccccc1 (stereo not given)	> 21 µM (inactive)
Cc1ccc(S(=O)(=O)N2[C@@H](c3ccccc3)C(C(=O)O)=CC[C@H]2c2ccc(Cl)cc2)cc1	8.57 µM
CC(=O)Nc1cccc(NC(=S)Nc2ccc(F)cc2F)c1	> 42 µM (inactive)
COc1ccc(C(=O)N2CCN(c3ccc(NC(=O)c4cccnc4)cc3)CC2)cc1	> 42 µM (inactive)
CC(=O)Nc1ccccc1C(=O)C(=O)Nc1ccc(C(=O)NCC2CCCO2)cc1 (stereo not given)	> 42 µM (inactive)
O=C(Cc1cccs1)N1CCCC(c2nc3c(nnn3Cc3ccc(F)cc3)c(=O)[nH]2)C1 (stereo not given)	> 42 µM (inactive)
CC(C)c1ccc(-c2cc(C(=O)N3CCOCC3)c3cc(Br)ccc3n2)cc1	> 42 µM (inactive)
CCCCN(C)C(=O)c1cc2c(Cl)nc3ccccc3c2s1	> 42 µM (inactive)
COc1c(C)cc(S(=O)(=O)NC2CC(C)(C)NC(C)(C)C2)c(C)c1C	> 42 µM (inactive)
Cc1nn(C(C)(C)C)c(OC(=O)c2ccc3c(c2)OCO3)c1S(=O)(=O)c1ccccc1	> 42 µM (inactive)
CC(C)CCOCc1nc2sc3c(c2c(=O)[nH]1)CCC(C)C3 (stereo not given)	> 42 µM (inactive)
CN(C)c1ccc(C(=O)N2CCCC(CCC(=O)N3CCN(c4ccccn4)CC3)C2)cc1 (stereo not given)	> 42 µM (inactive)
COCCNC(=O)C(=O)N/N=C(\C)CC(=O)Nc1cccc(C(F)(F)F)c1	> 42 µM (inactive)
Cc1cccc(OCCC(=O)Nc2ccc(F)c(F)c2)c1	> 42 µM (inactive)
NC(=O)C1CCN(C2CC(=O)N(c3ccc(F)c(Cl)c3)C2=O)CC1 (stereo not given)	7.8 µM
CCC(C)[C@H](NC(=O)OC(C)(C)C)C(=O)NCC1CCC(C(=O)N[C@@H](Cc2ccccc2)C(=O)O)CC1 (stereo not given in full)	> 42 µM (inactive)
CC12CC3(C)CC(C)(C1)CC(C(=O)NC(=S)N1CCCC1)(C2)C3	> 42 µM (inactive)
O=C(CCSc1nnc(-c2ccncc2)o1)Nc1ccc(Cl)cc1	> 42 µM (inactive)
Cc1ccc(-c2csc(NC(=O)CSc3nc(C)cs3)n2)cc1	> 42 µM (inactive)
CCOC(=O)CN1NC2(CCC(C(C)(C)C)CC2)NC1=S (stereo not given)	> 42 µM (inactive)
Cc1ccc(F)cc1NS(=O)(=O)c1ccc(Cl)s1	22.2 µM
CCc1c(C)c2ccc(OCC(=O)OC(C)C)c(C)c2oc1=O	> 42 µM (inactive)
CC1=C(C(=O)N2CCOCC2)C(c2ccc(O)cc2)NC(=S)N1 (stereo not given)	> 42 µM (inactive)

Structure (SMILES)	AC50
Cc1cc(C)n(CCCNC(=O)CN(C)S(=O)(=O)c2ccc(Cl)cc2)n1	> 42 µM (inactive)
Cn1c(O)c(C(c2ccccn2)c2c(O)n(C)c(=S)n(C)c2=O)c(=O)n(C)c1=S	> 42 µM (inactive)
Cc1cc(C(=O)N/N=C/c2ccc3c(c2)OCO3)c2ccccc2n1	> 42 µM (inactive)
O=C(OCc1ccccc1)c1cccc(-c2nnn(Cc3ccccc3)n2)c1	> 42 µM (inactive)
O=C(O)Cc1sc(Nc2ccccc2)nc1-c1cccs1	> 42 µM (inactive)
Cc1ccc(N/N=C2/CCCNC2=O)cc1	> 42 µM (inactive)
Cc1cc(C(F)(F)F)nc(SCC(=O)Nc2cc(C)on2)n1	> 42 µM (inactive)
COc1ccccc1-n1nnnc1SCC(=O)Nc1ccc(C)c(N)c1	> 42 µM (inactive)
Cc1ccc2nc(/C(C#N)=C\c3cc(O)ccc3[N+](=O)[O-])[nH]c2c1	> 42 µM (inactive)
COc1ccc(NC(=O)C(c2ccccc2)N2CCN(c3ccccn3)CC2)cc1Cl (stereo not given)	> 42 µM (inactive)
COc1ccc(CNC(=O)c2cc(=O)c3cc(C)cc(C)c3o2)cc1	> 42 µM (inactive)
COc1ccc(NC(=O)CSc2nccc(C)n2)cc1	> 42 µM (inactive)
COc1ccc(C2C(C(C)=O)=C(O)C(=O)N2CCO)c(OC)c1 (stereo not given)	> 42 µM (inactive)
CCOc1ccccc1Nc1nnc(SCc2nnc(-c3cc(OC)c(OC)c(OC)c3)o2)s1	> 42 µM (inactive)
CCNC(=O)C1CC(=O)N(Cc2ccc3c(c2)OCO3)C(=Nc2ccc(F)cc2)S1 (stereo not given)	> 42 µM (inactive)
O=S(=O)(Nn1c(O)c(C=C2N=c3ccccc3=N2)sc1=S)c1ccccc1	> 42 µM (inactive)
CCOC(=O)c1cccc(NC(=O)C2CCCN(S(=O)(=O)c3c(C)n[nH]c3C)C2)c1 (stereo not given)	> 42 µM (inactive)
O=C1NC(=O)N(Cc2ccccc2)C1=O	> 42 µM (inactive)
CCOC(=O)CNC(=O)c1c(C)nn(C)c1Cl	> 42 µM (inactive)
CCOc1ncccc1C(=O)OCC(=O)N(CC)c1ccccc1	> 42 µM (inactive)
CC(C)C(=O)Nc1ccc(NC(=S)NC(=O)c2ccccc2F)cc1	> 42 µM (inactive)
COc1cc(/C=N/NC(=O)c2cccc([N+](=O)[O-])c2)ccc1O	> 42 µM (inactive)
